pKi: −log10 of the molar value.
How the values were obtained:
Blood [1] = test: Drug uptake in […] blood at 8 MBq/200 mL, iv after 15 mins; format: ADME, organism-based; conditions: in vivo, 0.25 h
Blood [2] = test: Drug uptake in […] blood at 8 MBq/200 mL, iv after 5 mins; format: ADME, organism-based; conditions: in vivo
Cannabinoid receptor 2 [3] = biological target: T1, Cannabinoid receptor 2 (Rattus norvegicus, UniProt Q9QZN9); test: Binding affinity to rat brain CB2 receptor
T1 sequence (Q9QZN9 whole entry): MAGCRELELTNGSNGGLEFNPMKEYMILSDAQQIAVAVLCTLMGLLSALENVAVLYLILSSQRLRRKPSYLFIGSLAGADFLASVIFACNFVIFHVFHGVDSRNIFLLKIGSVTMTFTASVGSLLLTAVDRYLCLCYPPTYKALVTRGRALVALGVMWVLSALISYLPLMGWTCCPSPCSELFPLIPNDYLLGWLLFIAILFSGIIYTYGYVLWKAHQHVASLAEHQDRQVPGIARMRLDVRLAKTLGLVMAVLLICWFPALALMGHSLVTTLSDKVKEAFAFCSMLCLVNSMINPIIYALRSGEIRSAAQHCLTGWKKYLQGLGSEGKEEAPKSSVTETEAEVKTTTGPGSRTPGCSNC

Brain [4] = test: Drug uptake in […] brain at 8 MBq/200 mL, iv after 60 mins; format: ADME, organism-based; conditions: in vivo, 1 h
Brain [5] = test: Drug uptake in […] brain at 8 MBq/200 mL, iv after 1 min; format: ADME, organism-based; conditions: in vivo
Brain [6] = test: Drug uptake in […] brain at 8 MBq/200 mL, iv after 15 mins; format: ADME, organism-based; conditions: in vivo, 0.25 h
Blood [7] = test: Drug uptake in […] blood at 8 MBq/200 mL, iv after 60 mins; format: ADME, organism-based; conditions: in vivo, 1 h
Brain [8] = test: Drug uptake in […] brain at 8 MBq/200 mL, iv after 5 mins; format: ADME, organism-based; conditions: in vivo
Blood [9] = test: Drug uptake in […] blood at 8 MBq/200 mL, iv after 30 mins; format: ADME, organism-based; conditions: in vivo, 0.5 h
Blood [10] = test: Drug uptake in […] blood at 8 MBq/200 mL, iv after 1 min; format: ADME, organism-based; conditions: in vivo
Brain [11] = test: Drug uptake in […] brain at 8 MBq/200 mL, iv after 30 mins; format: ADME, organism-based; conditions: in vivo, 0.5 h
Cannabinoid receptor 1 = Cannabinoid receptor 1 (Homo sapiens, UniProt P21554); test: Binding affinity to CB1 receptor
Cannabinoid receptor 1, sequence (P21554 whole entry): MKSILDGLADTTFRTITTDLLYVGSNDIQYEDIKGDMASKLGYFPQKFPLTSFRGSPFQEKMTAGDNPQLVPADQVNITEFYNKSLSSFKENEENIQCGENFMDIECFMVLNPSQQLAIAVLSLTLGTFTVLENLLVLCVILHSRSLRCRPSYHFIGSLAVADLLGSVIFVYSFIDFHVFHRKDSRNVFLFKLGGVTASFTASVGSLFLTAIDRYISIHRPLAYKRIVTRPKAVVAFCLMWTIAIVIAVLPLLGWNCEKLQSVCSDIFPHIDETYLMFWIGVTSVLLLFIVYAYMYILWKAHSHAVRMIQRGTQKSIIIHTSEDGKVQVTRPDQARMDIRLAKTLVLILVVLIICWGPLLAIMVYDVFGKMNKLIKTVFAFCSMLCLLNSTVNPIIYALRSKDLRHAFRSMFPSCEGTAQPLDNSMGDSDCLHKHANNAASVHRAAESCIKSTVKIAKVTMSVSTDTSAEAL

Cannabinoid receptor 2 [12] = biological target: Cannabinoid receptor 2 (Homo sapiens, UniProt P34972); test: Binding affinity to human CB2 receptor
Cannabinoid receptor 2 (Homo sapiens, UniProt P34972), sequence (P34972 whole entry): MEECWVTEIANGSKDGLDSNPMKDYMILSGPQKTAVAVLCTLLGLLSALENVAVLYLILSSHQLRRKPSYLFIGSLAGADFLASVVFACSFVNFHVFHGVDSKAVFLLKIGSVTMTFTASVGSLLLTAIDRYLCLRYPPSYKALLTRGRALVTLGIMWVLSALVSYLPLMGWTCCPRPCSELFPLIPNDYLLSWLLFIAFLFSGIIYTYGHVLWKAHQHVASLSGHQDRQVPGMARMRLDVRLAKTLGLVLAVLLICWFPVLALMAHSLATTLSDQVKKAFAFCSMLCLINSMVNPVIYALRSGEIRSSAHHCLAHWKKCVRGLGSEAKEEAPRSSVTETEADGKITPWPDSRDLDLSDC

| Drug uptake (Blood [1]) [%] | Drug uptake (Blood [2]) [%] | Drug uptake (Brain [4]) [%] | Drug uptake (Brain [5]) [%] | Drug uptake (Brain [6]) [%] | Drug uptake (Blood [7]) [%] | Drug uptake (Brain [8]) [%] | Drug uptake (Blood [9]) [%] | Drug uptake (Blood [10]) [%] | Drug uptake (Brain [11]) [%] | pKi (Cannabinoid receptor 1) | SMILES | pKi (Cannabinoid receptor 2 [3]) | pKi (Cannabinoid receptor 2 [12]) |
| --- | --- | --- | --- | --- | --- | --- | --- | --- | --- | --- | --- | --- | --- |
| 2.25 | 2.12 | 0.65 | 1.93 | 1.5 | 2.27 | 1.87 | 2.38 | 3.9 | 1.09 | – | COc1cc(C(O)c2cccs2)cc(O[11CH3])c1-c1cc(Cl)cc(Cl)c1 (stereo unspecified) | 9.57 | – |
| – | – | – | – | – | – | – | – | – | – | < 6.00 | COc1cc(C(O)c2cccs2)cc(OC)c1-c1cc(Cl)cc(Cl)c1 (stereo unspecified) | – | – |
| 0.7 | 1.18 | 0.45 | 1.94 | 1.77 | 0.37 | 2.07 | 0.35 | 2.2 | 0.96 | – | [11CH3]Oc1cc(C(O)c2cccs2)cc(O)c1-c1cc(Cl)cc(Cl)c1 (stereo unspecified) | – | – |
| 3.45 | 2.93 | 0.62 | 1.2 | 1.1 | 3.38 | 1.29 | 3.42 | 2.71 | 0.85 | – | COc1cc(C(=O)c2cccs2)cc(O[11CH3])c1-c1cc(Cl)cc(Cl)c1 | – | – |
| – | – | – | – | – | – | – | – | – | – | – | CCCCOc1c(O[11CH3])ccc2cc(C(=O)NC3CCCCC3)c(=O)[nH]c12 | – | 8.02 |
| – | – | – | – | – | – | – | – | – | – | – | CCCCOc1c(OCC[18F])ccc2cc(C(=O)NC3CCCCC3)c(=O)[nH]c12 | – | 7.45 |
| – | – | – | – | – | – | – | – | – | – | – | COc1ccc(S(=O)(=O)c2ccc(C(C)NS(C)(=O)=O)cc2)c(S(=O)(=O)c2ccc(O[11CH3])cc2)c1 (stereo unspecified) | – | 8.35 |

| SMILES | Drug uptake (Blood [1]) [%] | Drug uptake (Blood [2]) [%] | Drug uptake (Brain [4]) [%] | Drug uptake (Brain [5]) [%] | Drug uptake (Brain [6]) [%] | Drug uptake (Blood [7]) [%] | Drug uptake (Brain [8]) [%] | Drug uptake (Blood [9]) [%] | Drug uptake (Blood [10]) [%] | Drug uptake (Brain [11]) [%] | pKi (Cannabinoid receptor 1) | pKi (Cannabinoid receptor 2 [3]) | pKi (Cannabinoid receptor 2 [12]) |
| --- | --- | --- | --- | --- | --- | --- | --- | --- | --- | --- | --- | --- | --- |
| [11CH3]Oc1cc(C(=O)c2cccs2)cc(O)c1-c1cc(Cl)cc(Cl)c1 | 0.63 | 1 | 0.18 | 1.54 | 1.01 | 0.21 | 1.63 | 0.36 | 1.56 | 0.56 | – | 8.63 | – |
